# What was measured:
# [1] = tested on: heart muscle cells of neonatal mice; assay: Neonatal mice given beta blocker by retro-orbital injection (Examples 2 and 3): total cardiomyocytes, heart-body weight ratio; type: in vivo, mouse; conditions: retro-orbital injection twice a day, 1 μg/μl, 10 μl per g body weight; for heart-body-weight ratio: FIG. 17B, 18B; for total number of heart muscle cells (cardiomyocytes): P4 and P8 groups, FIG. 17A, 18A
# Procedure: (§1) Metoprolol was dissolved in PBS (1 μg/μl). The metoprolol was administered to neonatal mice using retro-orbital injection twice a day at the dose of 10 μl solution each 1 g body weight In the 4-day-old group (P4), the drug administration was performed at 9 am and 3 μm, respectively, from P1 and P3, then only injections at 9 am were performed at P4. The hearts were isolated at P4 in the afternoon. In the 8-day-old group (P8), the drug administration was performed at 9 am and 3 μm, respectively, from P1 and P7, then only injections at 9 am were performed at P8. The hearts were isolated at P8 in the afternoon.
# as §1, with “Alprenolol” for “Metoprolol”, “alprenolol” for “metoprolol”, “pm,” for “μm,”
# [2] = tested on: cardiomyocytes of newborn mice; assay: Mouse pharmacological treatment of newborn mice: binucleated cardiomyocytes, cardiomyocyte endowment, cell cycle activity, heart weight; type: in vivo; conditions: newborn mice; for increase in the proportion of binucleated cardiomyocytes: forskolin 1 μg/g, 1 i.p. injection per day, FIG. 12B
# Procedure: […] An equal volume of phosphate buffered saline (PBS) was injected in the control groups.
# Isolation of intact cardiomyocytes for quantification: We used a previously validated fixation digestion method to isolate intact cardiomyocytes from fresh or frozen myocardium for quantification (Mollova, M., et al. “Cardiomyocyte proliferation in human heart growth” Proceedings of the National Academy of Sciences January 2013, 110 (4) 1446-1451; DOI: 10.1073/pnas.1214608110). The myocardium was cut into 1 cubic millimeter (mm^3) sized tissue blocks followed by incubation with 3.7% formaldehyde at room temperature for 1.8 hours. After being washed with PBS 3 times to remove the formaldehyde, the fixed tissue blocks were digested in enzyme solution (Collagenase B, 3.6 mg/ml; Collagenase D, 4.8 mg/ml) at 37 degrees Celsius (° C.), with 10 revolutions per minute (rpm) overhead rotation. The digested cells were collected every 24 hours from the supernatant, and the undigested tissue was re-suspended with fresh enzyme solution until all of the tissue pieces were digested. All of the digested cells from the same heart were then combined and allowed to settle to the bottom of the tube. The cell pellet was collected for further study.
# Counting of cardiomyocytes after fixation and digestion: All fractions from the digestion of a heart were combined in 2 milliliters (mL) PBS and cardiomyocytes were quantified using a hemocytometer.
# Intact cardiomyocytes in suspension. To assess M-phase, intact cardiomyocytes were isolated by fixation-digestion. The solution containing the stained cells was then transferred to 8-well chambered cover glass (400 μl/well). After the cells were settled down to the bottom of the chambers, the number of mono/bi/multinucleated cardiomyocytes were counted with a fluorescence microscope, and the percentage of mono/bi/multinucleated cardiomyocytes was calculated. To quantify the proportion of H3P-positive cardiomyocytes, the concentration of stained cardiomyocytes in suspension (Ccardiomyocytes) was first measured using a hemocytometer. The cell suspension (400 μl) was then transferred to a well of a chamber slide, and the total number of H3P-positive cardiomyocytes (HH3P+) inside the well was counted with a TiE epifluorescence microscope. The proportion of the H3P-positive cardiomyocytes (PH3P+) was calculated using the following formula: […]
# Heart sections: To determine S-phase, BrdU (40 μg/g body) was administered to P7 ICR mice and the hearts were resected at P8, fixed, and cryosectioned at 15 μm thickness. From each heart, four heart sections at a distance of 300 μm were selected and imaged by tile scanning with a Nikon A1R confocal microscope. The total number of BrdU-positive cardiomyocytes at the selected heart sections was counted. The total area of the selected heart sections was measured by Fiji software. The density of BrdU-positive cardiomyocytes (cells/mm^2) in the hearts was calculated using the following equation: […]
# Intact cardiomyocytes in suspension. Cardiomyocytes were isolated from fresh or frozen (human or mouse) ventricle myocardium using the fixation-digestion method, followed by immunostaining as described above. The cells were then imaged and quantified with a Nikon A1R microscope for mono/bi/multi-nucleation.
# [3] = tested on: human fetal cardiomyocytes; assay: Cytokinesis failure in cultured human fetal cardiomyocytes (β-adrenergic receptor signaling pathway studies); type: cell-based; conditions: cultured human fetal cardiomyocytes, 10 μM, FIG. 14C
# Procedure: Primary cardiomyocyte culture experiments: Neonatal (mouse or rat) cardiomyocytes or human fetal cardiomyocytes were plated in 4-well chamber slides pre-coated with fibronectin (10 μg/ml) at a density of 200,000 cells/well and cultured with DMEM/high glucose (for mouse and rat cardiomyocytes) or IMDM (for fetal human cardiomyocytes) containing 10% fetal bovine serum (FBS) and recombinant neuregulin 1 (rNRG1, 100 nanograms per milliliter (ng/ml)) overnight. All treatments and BrdU (30 micromolar (μM)) were added on the next day.
# β-adrenergic receptor signaling pathway studies: Forskolin (10 μM), propranolol (10 μM), dobutamine (10 μM), or a combination of propranolol (10 μM) and dobutamine (10 μM) were added to the culture from day 1 to day 3. The cells were collected for examining gene expression or immunofluorescence microscopy at day 3.
# Cardiomyocytes cultured on glass surfaces. […] The BrdU-positive nuclei, cell-cell boundaries (Pan-Cadherin antibody), and cardiomyocyte markers (α-actinin or troponin I antibody) were labeled by immunofluorescence. The stained cells were imaged under Nikon confocal microscope. The binucleated cardiomyocytes and all BrdU-positive cardiomyocytes were quantified using Fiji software.
# [4] = tested on: cardiomyocytes from infants with ToF/PS; assay: ToF/PS myocardium tissue (organotypic) culture: binucleated BrdU-labeled cardiomyocytes; type: cell-based, human; conditions: organotypic cultures of heart pieces from infants with ToF/PS, 10 μM, BrdU, FIG. 14E
# Procedure: ToF/PS myocardium tissue culture: Discarded myocardium samples were collected during ToF/PS surgery, cut into ˜1 mm^3 tissue blocks, and cultured in IMDM media containing 10% FBS, recombinant neuregulin 1 (rNRG1, 100 ng/ml), and BrdU (30 μM) for 6 days. Samples were treated with forskolin (10 μM), propranolol (10 μM), dobutamine (10 μM), or a combination of propranolol (10 μM) and dobutamine (10 μM).
# Cultured ToF/PS myocardium. Cardiomyocytes were isolated from cultured myocardium with the fixation-digestion method. After denaturing the DNA with 2N HCl and neutralization with 2 Normal (N) sodium hydroxide (NaOH), immunofluorescence antibody labeling was performed in solution. The proportion of binucleated and BrdU-positive was quantified with a Nikon A1R microscope.
smiles,measurement,setting,value
"COCCc1ccc(OCC(O)CNC(C)C)cc1 (centres unmarked) [Metoprolol, 1-[4-(2-methoxyethyl)phenoxy]-3-(propan-2-ylamino)propan-2-ol]",heart-body-weight ratio,[1],did not alter
same,total number of heart muscle cells (cardiomyocytes),[1],did not alter
"C=CCc1ccccc1OCC(O)CNC(C)C (centres unmarked) [alprenolol, 1-(propan-2-ylamino)-3-(2-prop-2-enylphenoxy)propan-2-ol]",heart weight,"[2]; 2 i.p. injections per day, FIG. 16A, 16B",did not result in a change
same,increase of cardiomyocyte endowment,"[2]; at P8, 2 i.p. injections per day, counting fixation-digested hearts, FIG. 12D, 12H",24%
same,decrease of the proportion/formation of binucleated cardiomyocytes,"[2]; treatment from P1 to P8, 2 i.p. injections per day (propranolol 10 μg/g; alprenolol 10 μg/g, 40 μg/g), FIG. 12C, 12G",13%
same,heart-body-weight ratio,[1],without altering
same,total number of heart muscle cells (cardiomyocytes),[1],increases
CC(CCc1ccc(O)cc1)NCCc1ccc(O)c(O)c1 (centres unmarked) [dobutamine],binucleated cardiomyocytes as % of the Fsk-induced increase,[3],95.2%
same,proportion of binucleated cardiomyocytes,[4],maximal increase
C=C[C@@]1(C)CC(=O)[C@]2(O)[C@@]3(C)[C@@H](O)CCC(C)(C)[C@@H]3[C@H](O)[C@H](OC(C)=O)[C@@]2(C)O1 [forskolin],increase in the proportion of binucleated cardiomyocytes,[2]; after 4 days,37%
same,increase in the proportion of binucleated cardiomyocytes,[2]; after 8 days,21%
